The subject of data set [1] is established adjuvant-induced arthritis in rats. In words: Established adjuvant-induced arthritis in rats (therapeutic, paw volume). It is filed as in vivo, Charles River Lewis male rats. The settings on record: Rattus norvegicus.
Data set [2] deals with non-established adjuvant-induced arthritis in rats. The data set can be described thus: Non-established adjuvant-induced arthritis in rats (prevention of development, paw volume). It is filed as in vivo, Charles River Lewis male rats. The conditions noted are these: for ED50: Rattus norvegicus, read-out: ED50% non-established arthritis; for effectiveness in preventing development of arthritis compared with treating established arthritis: non-established vs established arthritis, rats. The method, then: Non-Established Adjuvant-Induces Arthritis in Rats
A test used primarily to determine the effects of compounds on the immunological reactions involved in the induction process and to prevent the development of arthritis.
Charles River Lewis male rats (130-150 grams) are injected subcutaneously in the plantar area of the right hind paw with 0.1 ml of adjuvant (Difco heat-killed, lyophilized Mycobacterium butyricum suspended in mineral oil 5 mg/ml). 40 Non-arthritic controls are injected with mineral oil. Groups of 20 rats are given single, daily oral doses of compound (in PVA-Acacia vehicle, 10 ml/kg) or vehicle by gavage beginning immediately following paw injection for a total of 14 doses. The paw volume of the uninjected (left) hind paw is measured 24 hours after the last dose using a Ugo Basile Volume differential meter Model 7101. The ED50% decrease from control is determined as described above.

Data set [3] has as its system plaque forming (antibody producing) spleen cells of rats with adjuvant-induced arthritis. In words: Modified Jerne spleen cell hemolytic plaque assay. In kind it is in vivo, rats (Charles River Lewis). The settings on record: for effect on number of plaque forming cells (PFC): arthritic rats. How it is done:
MODIFIED JERNE SPLEEN CELL HEMOLYTIC PLAQUE ASSAY
A modification of the technique described by N. K. Jerne and A. A. Nordin (Science, 140, 450, 1963) was used in these studies. Rats (Charles River Lewis) with adjuvant-induced arthritis (and non-arthritic controls) were dosed orally ounce per day with PVA-Acacia vehicle* or compounds in vehicle from day 14 (following adjuvant injection) to day 20. The animals were sensitized with sheep red blood cells (SRBC) (0.2 ml of a 10% suspension=[…]) I.V. on day 17. The SRBC (Microbiological Associates) were washed 3 times in 0.9% sodium chloride solution prior to injection. On day 21 the rats were anesthetized with 1% sodium pentobarbital I.P. and the spleens were removed. Each spleen was placed on a stainless steel screen suspended over a plastic beaker in an ice bath and gently macerated with a glass syringe plunger. The cells were washed through the mesh into the beaker using a pasteur pipette to apply about 10 ml of Eagle's Minimal Essential Medium (MEM) during the maceration process until only fibrous material remained on the screen. Large particles were allowed to settle out for about 5 minutes and about 5 ml of supernatant was transferred to a plastic tube. Dilutions of 1:10 and 1:20 were made in cold MEM.
Plating: 2 ml of 0.7% Agarose (1.4% diluted 1:2 with 2X Eagles MEM) and 0.2 ml of a 10% SRBC suspension were pre-warmed in a 45° C. water bath. 20 Lambda of spleen cell dilution were added, mixed gently and poured into a supporting layer of 2 ml of 1.4% Agarose in a 60×15 mm plastic petri plate. Plates were incubated at 37° C. for 1.5 hours in a humidified incubator. 1.5 ml of guinea pig complement (diluted 1:10 with MEM) was added and incubation was continued for 1 hour longer.
Zones of hemolysis (plaques) per plate were counted without magnification against a diffuse light source. Assuming each plaque to have resulted from hemolysin produced by a single spleen cell, the number of plaque forming cells (PFC) per million spleen cells was calculated for each dilution. The statistical calculations (mean, standard error and "t" test) included the PFC/million count for each dilution of each spleen.

The test system of data set [4] is B lymphocytes in spleen cell suspensions. The settings on record: for effect on B lymphocyte proportion / lymphocyte population: arthritic rats.
In data set [5] the test system is immunologic reactions / rheumatoid arthritis. The conditions noted are these: background; cited from earlier work.
In data set [6] the test system is phenylquinone writhing syndrome. In words: Phenylquinone writhing test (analgesic activity). The settings on record: oral; for ED50: Mus musculus, 1% methylcellulose, Tables VIII and IX, read-out: ED50 (effective analgesic dose for 50% of the mice); for peak time: time of peak action. In kind it is in vivo, female white mice. The method, then:
Phenylquinone Writhing Test A standard procedure for detecting and comparing the analgesic activity of compounds in this series for which there is good correlation with human efficacy is the standard phenylquinone writhing test modified from Siegmund, et al., Proc. Soc. Exp. Biol. Med. 95, 729 (1957). […] Aqueous (0.01% phenyl-p-benzoquinone) phenylquinone was injected intraperitoneally at 24 minutes later using 0.20 ml per mouse. […] The effective analgesic dose for 50% of the mice (ED50) was calculated by the moving average method of Thompson, W. R., Bact. Rev. 11, 115-145 (1947); also time of peak action was determined for many of the compounds.
(In writhing tests, fewer writhes than in controls are read as antinociception.)

The mark [7] stands for this setting: po, Table V, read-out: ED50% established arthritis.
Where [8] appears, read: po, established arthritis, 7 daily doses, ED50% decrease from control paw volume, Tables I-III, read-out: Adjuvant Arthritis (ED50%).
The mark [9] stands for this setting: Table V, oral, 14 daily doses from adjuvant injection.

The source of these data is US4190666A, “Anti-inflammatory 4,5-diarly-2-(substituted-thio)imidazoles and their corresponding sulfoxides and sulfones” (E. I. Du Pont de Nemours and Company, priority 1978, dated 1980).

Where two headings read alike, the source gives them in different places.

Usually ED50 stands for the dose that gives a 50% effect, or the effect in half of the subjects. For the compound `O=S(=O)(c1nc(-c2ccc(F)cc2)c(-c2ccc(F)cc2)[nH]1)C(F)(F)C(F)F` [Example 71, 4,5-bis(4-fluorophenyl)-2-(1,1,2,2-tetrafluoroethylsulfonyl)imidazole], the ED50 stood at 0.03 mg/kg in data set [1] (setting [7]), 0.025 mg/kg in data set [1] (setting [8]) and 0.03 mg/kg in data set [2] (setting [9]). The “mean plaque forming cells per million spleen cells (N = 20)” value in data set [3] (daily oral dose 0.03 mg/kg) is 499 cells per million spleen cells; in data set [3] (daily oral dose 0.3 mg/kg), 439 cells per million spleen cells. Moreover, the “mean % B cells” value in data set [4] (daily oral dose 0.03 mg/kg, pooled data from 3 experiments (N = 15)) was found to be 38%; in data set [4] (daily oral dose 0.3 mg/kg, pooled data from 3 experiments (N = 15)) it was 41%.
Turning to `O=P1(N(CCCl)CCCl)NCCCO1` (stereo not drawn) [Cyclophosphamide, reference compound], the median effective dose (ED50) in data set [1] (setting [7]) stood at 10 mg/kg; in data set [2] (setting [9]) it was 1.5 mg/kg. Moreover, the “effectiveness in preventing development of arthritis compared with treating established arthritis” value in data set [2] was “more effective in preventing the development of arthritis in rats than in treating established arthritis in rats”. Further, in data set [3], the “effect on number of plaque forming cells (PFC)” value was “reduced the PFC far below normal”. In data set [3] (daily oral dose 5.0 mg/kg), the “mean plaque forming cells per million spleen cells (N = 20)” value was 25 cells per million spleen cells. The “effectiveness in treatment of rheumatoid arthritis” value in data set [5] is “effective in the treatment of rheumatoid arthritis”. For the same compound, in data set [5], the “toxicity for wide-spread use” value is listed as “too toxic for wide-spread use”. Besides, the “effect on B lymphocyte proportion / lymphocyte population” value in data set [4] is “reduced the B lymphocyte proportion to below normal”. The “mean % B cells” value in data set [4] (daily oral dose 5 mg/kg) is given as 25%.
Turning to `CCCCC1C(=O)N(c2ccccc2)N(c2ccccc2)C1=O` [Phenylbutazone], the ED50 was 10 mg/kg in data set [1] (setting [7]) and 35 mg/kg in data set [2] (setting [9]). Besides, the “effectiveness in preventing development of arthritis compared with treating established arthritis” value in data set [2] is “less effective in preventing the development of arthritis in rats than in treating the inflammation in established arthritis”. In addition, the “effect on immunologic reactions in rheumatoid inflammation” value (“effect on immunologic reactions” below) in data set [5] is “have no effect on these immunologic reactions”. Also, in data set [4] (daily oral dose 20 mg/kg), the “mean % B cells” value came to 53%.
For `O=S(=O)(c1nc(-c2ccc(Cl)cc2)c(-c2ccccc2)[nH]1)C(F)(F)C(F)F` [Example 86, 4(or 5)-(4-chlorophenyl)-5(or 4)-phenyl-2-(1,1,2,2-tetrafluoroethylsulfonyl)imidazole], the ED50 in data set [1] (setting [8]) is 0.065 mg/kg. Besides, the results for the “mean plaque forming cells per million spleen cells (N = 20)” value in data set [3] (daily oral dose 0.07 mg/kg) and in data set [3] (daily oral dose 0.7 mg/kg) were 412 cells per million spleen cells and 367 cells per million spleen cells, respectively. The “mean % B cells” value in data set [4] (daily oral dose 0.1 mg/kg) amounted to 48%; in data set [4] (daily oral dose 1.0 mg/kg), 42%.
For `COc1ccc2c(c1)c(CC(=O)O)c(C)n2C(=O)c1ccc(Cl)cc1` [Indomethacin, reference compound], the median effective dose (ED50) in data set [1] (Table V, oral, read-out: ED50% established arthritis) came out at 0.3 mg/kg; in data set [2] (po), 3 mg/kg. Moreover, the “effectiveness in preventing development of arthritis compared with treating established arthritis” value in data set [2] is reported as “less effective in preventing the development of arthritis in rats than in treating the inflammation in established arthritis”. For the same compound, the “effect on number of plaque forming cells (PFC)” value in data set [3] is recorded as “had no effect on the number of PFC”. In addition, the “mean plaque forming cells per million spleen cells (N = 20)” value in data set [3] (daily oral dose 1.0 mg/kg) is 694 cells per million spleen cells. In data set [5], the “effect on immunologic reactions” value was “have no effect on these immunologic reactions”. Besides, the “effect on B lymphocyte proportion / lymphocyte population” value in data set [4] is on record as “had no effect on the lymphocyte population”. For the same compound, in data set [4] (daily oral dose 0.5 mg/kg), the “mean % B cells” value is given as 57%.
In the case of `FC(F)C(F)(F)Sc1nc(-c2ccccc2)c(-c2ccccc2)[nH]1` [Example 18, 4,5-Diphenyl-2-(1,1,2,2-tetrafluoroethylthio)imidazole], the ED50 worked out at 0.75 mg/kg in data set [1] (setting [7]), 0.75 mg/kg in data set [1] (setting [8]) and 2.3 mg/kg in data set [2] (setting [9]). For the same compound, the “mean plaque forming cells per million spleen cells (N = 20)” value in data set [3] (daily oral dose 1.5 mg/kg) was 197 cells per million spleen cells; in data set [3] (daily oral dose 15 mg/kg), 320 cells per million spleen cells. For the same compound, the “mean % B cells” value in data set [4] (daily oral dose 1.5 mg/kg, pooled data from 2 experiments (N = 10)) is reported as 37%; in data set [4] (daily oral dose 15 mg/kg, pooled data from 2 experiments (N = 10)), 34%.
For `CC(=O)Oc1ccccc1C(=O)O` [aspirin], the “effect on immunologic reactions” value in data set [5] was “have no effect on these immunologic reactions”.
Take `FC(F)C(F)(F)Sc1nc(-c2ccc(Cl)cc2)c(-c2ccc(Cl)cc2)[nH]1` [Example 39]: the ED50 in data set [1] (setting [7]) stood at 0.2 mg/kg; in data set [1] (setting [8]), 0.3 mg/kg; in data set [2] (setting [9]) it was 0.06 mg/kg. The “mean plaque forming cells per million spleen cells (N = 20)” value in data set [3] (daily oral dose 0.1 mg/kg) is recorded as 788 cells per million spleen cells; in data set [3] (daily oral dose 1.0 mg/kg), 488 cells per million spleen cells. Besides, the “mean % B cells” value in data set [4] (daily oral dose 0.2 mg/kg, pooled data from 2 experiments (N = 10)) was 37%; in data set [4] (daily oral dose 2.0 mg/kg, pooled data from 2 experiments (N = 10)), 35%.
On to `COc1ccc(-c2nc([S+]([O-])CC(F)(F)F)[nH]c2-c2ccc(OC)cc2)cc1` (stereo not drawn) [Example 5, 4,5-bis(4-Methoxyphenyl)-2-(2,2,2-trifluoroethylsulfinyl)-imidazole], for which the ED50 in data set [1] (setting [8]) amounted to 10 mg/kg. Also, in data set [6], the ED50 stood at 0.86 mg/kg and the peak time was determined as 60 min.
Consider `CC(C)Cc1ccc(C(C)C(=O)O)cc1` (stereo not drawn) [ibuprofen], for which the “effect on immunologic reactions” value in data set [5] was “have no effect on these immunologic reactions”.
In the case of `COc1ccc(-c2nc(S(=O)(=O)C(F)(F)C(F)Br)[nH]c2-c2ccc(OC)cc2)cc1` (stereo not drawn) [Example 95], the ED50 stood at 2.4 mg/kg in data set [1] (setting [8]) and 2.8 mg/kg in data set [6].
Consider `COc1ccc(-c2nc(S(=O)(=O)C(F)(F)C(F)F)[nH]c2-c2ccccc2)cc1` [Example 82], for which the ED50 in data set [1] (setting [8]) is 1.1 mg/kg. In addition, in data set [6], the ED50 was 0.33 mg/kg and the peak time is on record as 240 min.
As for `COc1ccc(-c2nc(S(=O)(=O)C(F)(F)F)[nH]c2-c2ccc(OC)cc2)cc1` [Example 127, 4,5-bis(4-methoxyphenyl)-2-(trifluoromethylsulfonyl)imidazole], the ED50 in data set [1] (setting [8]) stood at 0.33 mg/kg. Also, in data set [6], the ED50 came to 0.045 mg/kg and the peak time came out at 240 min.
Regarding `COc1ccc(-c2nc(S(=O)(=O)C(F)F)[nH]c2-c2ccc(OC)cc2)cc1` [Example 74], the values for the ED50 in data set [1] (setting [8]) and in data set [6] were 0.5 mg/kg and 1.5 mg/kg, respectively.
Consider `CCOc1ccc(-c2[nH]c(S(=O)(=O)C(F)(F)C(F)F)nc2-c2ccccc2)cc1` [Example 142], for which, in data set [1] (setting [8]), the ED50 turned out to be 1.5 mg/kg. Further, in data set [6], the ED50 is 0.95 mg/kg and the peak time was 120 min.
For `COc1ccc(-c2nc(S(=O)(=O)C(F)(F)CF)[nH]c2-c2ccc(OC)cc2)cc1` [Example 125, 4,5-bis(4-methoxyphenyl)-2-(1,1,2-trifluoroethylsulfonyl)imidazole], in that order: 5 mg/kg, 0.25 mg/kg and 160 min.
